What was measured:
Assay in all cases: relative viability (nuclei count vs DMSO), 5 days (fraction); higher = more cells survive
[1] = compound: C(C(=O)C(=O)O)Br [Bromopyruvate] + Cc1cc(Nc2cc(N3CCN(C)CC3)nc(Sc3ccc(NC(=O)C4CC4)cc3)n2)n[nH]1 [Tozasertib] (partner 0.1 µM)
How it was run: (§1)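 A single step with final 0.05% Triton X-100, 1% formaldehyde and 1 ug/ml Hoechst fixed the cells and stained nuclei 5 days after treatment. Lung cancer cell lines in 1536-well plates had been treated by pin tool the day after seeding with one drug alone or a fixed anchor-drug dose plus five library-drug doses (not always all listed) in √10 steps, and nuclei were counted on 4× images. Relative viability is the ratio of nuclei in treated wells to nuclei in vehicle wells, taken as the median of duplicate plates.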

[2] = compound: CC(O)(CS(=O)(=O)c1ccc(F)cc1)C(=O)Nc1ccc(C#N)c(C(F)(F)F)c1 [Bicalutamide] + CC1(C)CCC(c2ccc(Cl)cc2)=C(CN2CCN(c3ccc(C(=O)NS(=O)(=O)c4ccc(N[C@H](CCN5CCOCC5)CSc5ccccc5)c(S(=O)(=O)C(F)(F)F)c4)cc3)CC2)C1 [Navitoclax] (partner 0.5 µM)
How it was run: as §1

[3] = compound: CC(O)(CS(=O)(=O)c1ccc(F)cc1)C(=O)Nc1ccc(C#N)c(C(F)(F)F)c1 [Bicalutamide] + C[C@@H](Oc1cc(-c2cnn(C3CCNCC3)c2)cnc1N)c1c(Cl)ccc(F)c1Cl [Crizotinib] (partner 1 µM)
How it was run: as §1

[4] = compound: CC(O)(CS(=O)(=O)c1ccc(F)cc1)C(=O)Nc1ccc(C#N)c(C(F)(F)F)c1 [Bicalutamide] + Nc1nc2[nH]cc(CCc3ccc(C(=O)N[C@@H](CCC(=O)O)C(=O)O)cc3)c2c(=O)[nH]1 [Pemetrexed] (partner 0.2 µM)
How it was run: as §1

Cell Line	relative viability ([1]; first compound 1 µM)	relative viability ([1]; first compound 3.162 µM)	relative viability ([1]; first compound 10 µM)	relative viability ([1]; first compound 31.62 µM)	relative viability ([1]; first compound 100 µM)	relative viability ([2]; first compound 0.08 µM)	relative viability ([2]; first compound 0.253 µM)	relative viability ([2]; first compound 0.8 µM)	relative viability ([2]; first compound 2.53 µM)	relative viability ([3]; first compound 0.08 µM)	relative viability ([3]; first compound 0.253 µM)	relative viability ([3]; first compound 0.8 µM)	relative viability ([3]; first compound 2.53 µM)	relative viability ([4]; first compound 0.08 µM)	relative viability ([4]; first compound 0.253 µM)	relative viability ([4]; first compound 0.8 µM)	relative viability ([4]; first compound 2.53 µM)
LU99A	0.344	0.253	0.285	0.233	0.325	0.756	0.779	1.01	0.742	0.65	0.451	0.602	0.362	0.19	0.163	0.206	0.183
NCI-H1355	0.529	0.577	0.516	0.548	0.574	1.06	0.919	0.928	0.983	1.12	0.993	1.14	1.04	1.04	0.992	1.1	0.999
HCC-78	0.375	0.404	0.481	0.311	0.536	0.825	0.862	0.893	0.687	0.355	0.362	0.37	0.319	0.947	0.708	0.962	0.939
NCI-H1563										0.863	0.861	0.794	0.743	0.871	0.69	0.919	0.697
HCC-15	0.393	0.546	0.286	0.371	0.399	0.757	0.685	0.761	0.712	0.82	0.767	1.01	0.882	0.23	0.231	0.221	0.223
EKVX	0.427	0.391	0.458	0.377	0.421	1.02	1.01	1.15	0.894	0.924	0.81	1.14	0.801	0.378	0.335	0.392	0.391
NCI-H2126	0.881	0.858	0.825	0.879	0.783	0.929	0.806	0.873	0.847	1.06	0.983	1.06	0.945	0.675	0.597	0.785	0.638
LK-2	0.171	0.169	0.174	0.179	0.177	0.844	0.798	1.18	0.841	0.252	0.209	0.2	0.225	0.233	0.273	0.379	0.303
NCI-H1437	0.384	0.414	0.447	0.397	0.451	1.1	1.17	1.14	1.11	0.899	0.893	0.895	0.923	0.312	0.303	0.349	0.316
COR-L23	0.198	0.202	0.183	0.204	0.0755	1.17	1.02	1.11	0.898	0.678	0.552	0.703	0.449	0.204	0.203	0.184	0.196

From the supplement of paper PMC10307832
